Key:
[1] = target: T1, human CK1δ transcription variant 1 (Homo sapiens, UniProt P48730); experiment: in-vitro kinase assay CK1δ; assay type: biochemical; conditions: 10 µM ATP, mean ± SD, n = 3
T1 construct: made in house; own knowledge
From the text: Human CK1δ transcription variant 1 (CK1δ TV1_NM_001893.4) has been amplified from the cDNA obtained from HT1080 cell line, using CK1δ_forward-primer: 5′-GGATCCATGGAGCTGAGAGTCGGGAACAG-3′ and CK1δ_reverse primer: 5′-GGATCCTCATCGGTGCACGACAGACTGA-3′. The CK1δ DNA construct was cloned into pSC-A cloning vector (Agilent technologies, Munich, Germany) with BamHI enzyme, to generate plasmids pGEX6-P3-GST-CK1δ TV1 (FP1417). Overexpression and purification of GST-CK1δ TV1 protein has been performed as described before.
(§1) In vitro kinase assays have been performed to both screen, as well as to calculate IC50 values of the compounds for CK1δ and ε. Each reaction was carried out using 2 μCi ^32P-γ-ATP in kinase buffer containing 25 mM Tris-HCl (pH = 7.5), 10 mM MgCl2, 100 µM EDTA, and 10 µM ATP. […] Recombinant human CK1δ transcription variant 1 (expressed and purified as GST fusion protein as described earlier) and human GST-CK1ε (PV3500; Invitrogen) were used as sources of enzyme, while α-casein (C6780; Sigma-Aldrich) was used as substrate. Kinase reactions were incubated for 30 min at 30 °C and then stopped with loading dye (50 mM Tris-HCl (pH = 6.8), 5% (v/v) β-mercaptoethanol (MSH), 10% (v/v) glycerol, 2% (w/v) sodium dodecyl sulfate (SDS), 0.1% (w/v) bromphenol blue). Subsequently, reactions were separated by sodium dodecyl sulfate polyacrylamide gel electrophoresis (SDS-PAGE) and phosphorylated protein bands were visualized on dried gels by autoradiography. The phosphorylated substrate protein bands were excised, and phosphorylation was quantified by Cherenkov counting. Dose-response analyses and calculation of IC50 values were carried out using GraphPad Prism 6 statistical software (San Diego, CA, USA).

human GST-CK1ε = target: T2, human GST-CK1ε (Homo sapiens, UniProt P49674); experiment: in-vitro kinase assay CK1ε; assay type: biochemical; conditions: 10 µM ATP, mean ± SD, n = 3
T2 construct: purchased Invitrogen PV3500
Procedure: as §1

T2 sequence (P49674 whole entry): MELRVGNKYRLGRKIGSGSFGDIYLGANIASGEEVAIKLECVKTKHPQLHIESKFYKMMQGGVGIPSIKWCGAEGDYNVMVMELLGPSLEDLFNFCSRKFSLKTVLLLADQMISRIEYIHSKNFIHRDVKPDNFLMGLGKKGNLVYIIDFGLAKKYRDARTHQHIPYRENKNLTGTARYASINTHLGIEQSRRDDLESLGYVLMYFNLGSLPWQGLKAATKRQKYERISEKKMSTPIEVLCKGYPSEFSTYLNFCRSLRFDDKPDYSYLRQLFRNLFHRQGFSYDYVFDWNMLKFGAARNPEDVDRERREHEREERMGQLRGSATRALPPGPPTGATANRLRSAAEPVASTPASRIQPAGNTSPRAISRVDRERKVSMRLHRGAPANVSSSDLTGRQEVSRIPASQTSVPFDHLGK

COc1ccc(-c2cc(C(=O)Nc3cc(-c4c(-c5ccc(F)cc5)noc4C(C)C)ccn3)n(CC3NCC(O)C3O)c2)cc1 (stereo not shown) [29d]
IC50 [1]: 0.038 ± 0.003 µM | remaining activity at 10 µM ([1]; 10 µM compound, read-out: CK1δ Residual Activity [%] at 10 µM ± SD): 2.9 ± 0.3% | IC50 (human GST-CK1ε): 0.065 ± 0.012 µM | remaining activity at 10 µM (human GST-CK1ε; 10 µM compound, read-out: CK1ε Residual Activity [%] at 10 µM ± SD): 12 ± 2%
